Experimental data published in ChEMBL document CHEMBL1201862, “PubChem BioAssay data set” (2004).
Values belong to the molecule of their own block, whether it stands above or below them. The source made the active and inactive calls.

What was measured:
[1] = cytotoxicity toward NIH3T3 fibroblasts, dose response, counter-screen, cell-based, ATP luminescence, mouse fibroblasts (AID 2010); type: functional;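 further: cells exposed to compound for about 90 hours before reading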
[2] = molecular target: Protein Wnt-3a (Mus musculus, UniProt P27467); assay: Wnt3a-driven reporter signaling inhibition, dose response, selectivity assay for Gli-SUFU antagonist project, Wnt-LIGHT cells, luminescence (AID 651570); type: functional; details: read-out: IC50_Mean;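 further: Wnt-LIGHT reporter cells stimulated with conditioned medium from Wnt3a-producing cells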
Chain of Protein Wnt-3a (P27467 whole entry): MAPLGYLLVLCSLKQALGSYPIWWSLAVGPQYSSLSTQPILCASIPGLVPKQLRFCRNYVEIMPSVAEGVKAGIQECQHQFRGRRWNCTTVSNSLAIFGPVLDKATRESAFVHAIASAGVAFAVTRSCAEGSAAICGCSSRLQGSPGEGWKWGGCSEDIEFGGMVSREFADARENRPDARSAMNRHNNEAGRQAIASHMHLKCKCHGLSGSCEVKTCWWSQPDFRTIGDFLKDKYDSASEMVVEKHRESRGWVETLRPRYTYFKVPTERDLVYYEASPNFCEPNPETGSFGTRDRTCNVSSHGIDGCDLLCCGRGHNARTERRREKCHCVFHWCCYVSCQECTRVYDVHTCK

[3] = inhibitors of intracellular T. cruzi replication, confirmation, NIH3T3 host cells, beta-gal luminescence (AID 2044); type: functional, cell-based;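 further: intracellular parasites grown in NIH/3T3 mouse fibroblasts as host cells; luminescent beta-galactosidase reporter signal from transgenic T. cruzi replicating inside host cells; inhibitors lower the luminescence signal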
[4] = molecular target: Potassium voltage-gated channel subfamily KQT member 2 (Rattus norvegicus, UniProt O88943); assay: KCNQ2 potassium channel inhibitors, dose response, cell-based, automated electrophysiology, set II, rat KCNQ2 (AID 588637); type: functional
Chain of Potassium voltage-gated channel subfamily KQT member 2 (O88943 whole entry): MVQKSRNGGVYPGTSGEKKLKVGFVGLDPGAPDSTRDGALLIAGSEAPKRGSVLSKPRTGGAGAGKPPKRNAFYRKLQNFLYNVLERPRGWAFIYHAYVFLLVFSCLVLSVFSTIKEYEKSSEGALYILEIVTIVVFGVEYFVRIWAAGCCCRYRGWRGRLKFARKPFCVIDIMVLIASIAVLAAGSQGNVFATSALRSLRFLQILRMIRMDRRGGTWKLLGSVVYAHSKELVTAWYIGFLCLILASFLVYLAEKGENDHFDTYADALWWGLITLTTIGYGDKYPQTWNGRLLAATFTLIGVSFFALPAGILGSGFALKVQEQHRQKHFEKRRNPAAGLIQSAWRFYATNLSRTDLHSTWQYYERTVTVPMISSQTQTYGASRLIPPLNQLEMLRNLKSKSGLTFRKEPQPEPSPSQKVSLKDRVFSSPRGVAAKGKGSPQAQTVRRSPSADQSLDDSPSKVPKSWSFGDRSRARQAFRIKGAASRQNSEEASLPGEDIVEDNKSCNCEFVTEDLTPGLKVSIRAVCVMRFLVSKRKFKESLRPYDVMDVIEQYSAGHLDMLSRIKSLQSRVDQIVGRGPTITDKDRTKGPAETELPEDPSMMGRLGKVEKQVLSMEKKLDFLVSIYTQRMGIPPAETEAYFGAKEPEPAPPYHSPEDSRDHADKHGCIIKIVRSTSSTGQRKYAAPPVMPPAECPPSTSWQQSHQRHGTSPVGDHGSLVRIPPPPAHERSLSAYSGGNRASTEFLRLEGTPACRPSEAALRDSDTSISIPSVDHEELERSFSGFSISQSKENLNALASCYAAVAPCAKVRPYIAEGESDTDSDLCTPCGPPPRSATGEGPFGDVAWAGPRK

[5] = molecular target: T1, Aminopeptidase N (Plasmodium falciparum FcB1/Columbia, UniProt O96935); assay: P. falciparum M1AAP inhibitors, biochemical, fluorogenic H-Leu-NHMec substrate, 1536-well (AID 1445); design: species or system Plasmodium falciparum 3D7, 3D7
T1 sequence (O96935 whole entry): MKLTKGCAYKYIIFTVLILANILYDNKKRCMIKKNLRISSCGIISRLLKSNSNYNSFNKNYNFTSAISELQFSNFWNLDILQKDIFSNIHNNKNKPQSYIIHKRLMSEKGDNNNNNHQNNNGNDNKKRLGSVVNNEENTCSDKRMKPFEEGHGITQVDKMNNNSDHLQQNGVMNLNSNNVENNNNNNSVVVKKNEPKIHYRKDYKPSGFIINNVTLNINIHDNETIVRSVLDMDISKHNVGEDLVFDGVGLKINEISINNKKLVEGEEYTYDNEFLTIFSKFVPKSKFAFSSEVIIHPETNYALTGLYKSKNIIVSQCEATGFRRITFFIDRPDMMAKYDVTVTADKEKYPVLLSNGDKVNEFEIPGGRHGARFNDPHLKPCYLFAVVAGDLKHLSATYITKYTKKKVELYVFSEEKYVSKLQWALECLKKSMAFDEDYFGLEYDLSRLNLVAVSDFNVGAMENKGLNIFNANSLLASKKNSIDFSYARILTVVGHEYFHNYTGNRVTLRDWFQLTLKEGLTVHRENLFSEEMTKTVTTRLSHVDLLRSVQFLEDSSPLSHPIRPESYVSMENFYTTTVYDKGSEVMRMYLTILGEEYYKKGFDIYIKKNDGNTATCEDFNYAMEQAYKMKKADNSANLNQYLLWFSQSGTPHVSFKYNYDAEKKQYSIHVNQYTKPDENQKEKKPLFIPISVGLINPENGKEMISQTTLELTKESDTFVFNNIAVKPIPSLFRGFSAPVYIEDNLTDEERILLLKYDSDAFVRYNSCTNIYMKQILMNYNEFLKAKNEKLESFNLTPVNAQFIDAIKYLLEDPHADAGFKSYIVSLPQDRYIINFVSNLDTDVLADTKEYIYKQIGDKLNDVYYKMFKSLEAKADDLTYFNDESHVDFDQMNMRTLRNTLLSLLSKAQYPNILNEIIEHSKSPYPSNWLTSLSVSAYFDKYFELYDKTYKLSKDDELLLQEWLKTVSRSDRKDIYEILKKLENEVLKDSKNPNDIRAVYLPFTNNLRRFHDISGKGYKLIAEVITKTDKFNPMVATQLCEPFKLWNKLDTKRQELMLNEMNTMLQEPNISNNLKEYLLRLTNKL

[6] = molecular target: T2, High affinity choline transporter 1 (Homo sapiens, UniProt Q9GZV3); assay: CHT inhibitors, dose response, cell-based, 10-point CRC, membrane potential dye (AID 588401); type: functional;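 further: membrane potential dye fluorescence of choline-evoked depolarization via CHT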
T2 sequence (Q9GZV3 whole entry): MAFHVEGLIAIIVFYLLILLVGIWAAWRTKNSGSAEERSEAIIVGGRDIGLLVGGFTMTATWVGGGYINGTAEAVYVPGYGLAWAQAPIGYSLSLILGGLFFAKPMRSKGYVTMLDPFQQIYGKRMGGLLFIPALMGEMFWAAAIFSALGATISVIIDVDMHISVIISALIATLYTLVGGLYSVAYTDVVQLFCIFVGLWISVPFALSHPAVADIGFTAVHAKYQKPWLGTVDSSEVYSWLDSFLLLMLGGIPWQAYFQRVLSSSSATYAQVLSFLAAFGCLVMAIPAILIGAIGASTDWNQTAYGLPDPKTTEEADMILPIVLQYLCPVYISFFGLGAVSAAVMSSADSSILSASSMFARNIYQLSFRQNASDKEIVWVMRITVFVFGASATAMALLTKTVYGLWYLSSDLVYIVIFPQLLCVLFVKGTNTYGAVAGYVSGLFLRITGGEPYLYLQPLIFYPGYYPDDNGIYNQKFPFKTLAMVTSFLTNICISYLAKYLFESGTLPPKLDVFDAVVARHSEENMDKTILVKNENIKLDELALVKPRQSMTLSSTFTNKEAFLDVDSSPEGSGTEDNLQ

[7] = molecular target: T2, High affinity choline transporter 1; assay: CHT inhibitors, dose response, cell-based, 5-point CRC, membrane potential dye (AID 504840); type: functional
[8] = HEK293T cell cytotoxicity, dose response, cytotoxicity control for HIV Vif inhibitor project, cherry-picks (AID 652208); type: functional, cell-based
[9] = molecular target: Low molecular weight phosphotyrosine protein phosphatase (Homo sapiens, UniProt P24666); type: functional; details: read-out: IC50_Mean;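 further: Dose-response confirmation assay measuring inhibition of LMPTP enzyme activity by fluorescence intensity read-out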
Chain of Low molecular weight phosphotyrosine protein phosphatase (P24666 whole entry, the tested form may be a part): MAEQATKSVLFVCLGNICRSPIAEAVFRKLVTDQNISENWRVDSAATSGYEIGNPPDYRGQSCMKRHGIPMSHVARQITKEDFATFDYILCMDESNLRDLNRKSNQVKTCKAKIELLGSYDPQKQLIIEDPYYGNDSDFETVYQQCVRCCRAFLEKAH

[10] = molecular target: T3, Tyrosine-protein phosphatase non-receptor type 22 (Homo sapiens, UniProt Q9Y2R2); assay: LYP phosphatase inhibition for selectivity, dose response, selectivity assay for LMPTP inhibitor project, biochemical, fluorescence, LYP catalytic domain (AID 652006); type: functional; details: read-out: IC50_Mean
T3 sequence (Q9Y2R2 whole entry): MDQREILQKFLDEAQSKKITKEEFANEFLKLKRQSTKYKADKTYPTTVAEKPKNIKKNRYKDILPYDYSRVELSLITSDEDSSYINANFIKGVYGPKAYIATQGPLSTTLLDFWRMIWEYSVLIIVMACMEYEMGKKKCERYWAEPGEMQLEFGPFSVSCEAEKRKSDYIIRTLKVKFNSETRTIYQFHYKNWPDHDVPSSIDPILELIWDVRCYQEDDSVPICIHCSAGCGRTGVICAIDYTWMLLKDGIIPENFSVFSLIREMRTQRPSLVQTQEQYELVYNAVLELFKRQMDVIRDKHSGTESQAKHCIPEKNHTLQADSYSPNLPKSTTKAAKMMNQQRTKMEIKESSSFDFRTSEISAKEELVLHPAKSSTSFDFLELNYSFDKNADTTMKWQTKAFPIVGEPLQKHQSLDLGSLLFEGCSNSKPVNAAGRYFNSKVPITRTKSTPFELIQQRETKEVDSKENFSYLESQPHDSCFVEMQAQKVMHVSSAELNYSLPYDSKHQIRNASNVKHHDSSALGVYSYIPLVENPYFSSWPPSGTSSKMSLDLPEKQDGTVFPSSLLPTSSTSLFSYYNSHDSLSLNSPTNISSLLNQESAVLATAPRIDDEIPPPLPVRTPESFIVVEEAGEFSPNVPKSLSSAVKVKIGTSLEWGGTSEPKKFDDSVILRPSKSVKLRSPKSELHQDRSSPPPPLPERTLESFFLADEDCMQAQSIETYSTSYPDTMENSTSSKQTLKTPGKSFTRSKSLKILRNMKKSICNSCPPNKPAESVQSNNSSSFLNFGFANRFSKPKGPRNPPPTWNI

Structure (SMILES): c1ccc(-c2c[n+](-c3ccccc3)c3n2CCS3)cc1
EC50 [1]: > 60 µM (inconclusive)
IC50 [2]: 3.05 µM (active)
EC50 [3]: 2.27 µM (active)

IC50 [4]: 5.72 µM (active)
Structure (SMILES): COc1ccccc1N1CCN(C(=O)C(Cc2ccccc2)NC(=O)C2CCCCC2)CC1 (stereo not given)

IC50 [5]: 34.4 µM (active)
IC50 [6]: 4.47 µM (active)
IC50 [7]: 8.3 µM (active)
Structure (SMILES): Cc1cccc(C)c1-n1cccc1/C=C1/C(=N)N2C(=NC1=O)SN=C2S(C)(=O)=O

Structure (SMILES): Cc1cc(N2CCN(S(=O)(=O)c3ccc(Cl)c(Cl)c3)CC2)c2ccccc2n1
AC50 [8]: 50.5 µM (active)
IC50 [9]: 19.5 µM (active)
IC50 [10]: 35.8 µM (inactive)
